Test [1] has as its system BTN2A−/− MIA PaCa-2 (BTN2A1/BTN2A2 KO) cells. The test is described as follows: Cell killing assay with BTN2A−/− MIA PaCa-2 (BTN2A1/BTN2A2 KO) cells expressing BTN2A1/BTN2A2 variants. The note with it: cells expressing the BTN2A1 variant given as label; for Mean response (Fig. 6h, Dunnett test details): N = 6.
Method: MIA PaCa-2 cells were infected with lentivirus bearing luciferase transgene. Luciferase-positive cells were plated at 5.0 × 10^3 cells per well in 384-well plates 1 day before transfection. All plasmids were transfected into BTN2A^−/− MIA PaCa-2 (BTN2A1/BTN2A2 KO) cells using Lipofectamine 2000 reagent. […] Stable-lite luciferase (Vazyme) was added to each well and the luciferase signal was immediately measured by using the PerkinElmer EnVision microplate reader.
Percentage of lysis was calculated using the following equation: percentage of specific lysis = (maximum luciferase − experimental luciferase)/maximum luciferase × 100.
Test [2] concerns the target T1, preconditioned BTN2A1–BTN3A1 B30.2 complex (Homo sapiens, UniProt O00481+Q7KYR7).
T1 construct: The BTN3A1 B30.2 domain was expressed and purified as described previously; 6xHis; made in house; host or cells: Escherichia coli BL21 (DE3) for BTN2A1 B30.2
The test can be described thus: ITC: pAg binding to the preconditioned BTN2A1 B30.2 and BTN3A1 B30.2 complex. The note with it: ITC; Supplementary Table 4; read-out: KD (M) for phosphoantigen binding to the pre-conditioned 2A1 B30.2 and 3A1 B30.2. As to the method:
ITC binding fits were calculated using MicroCal Analysis software.
For HMBPP binding to the preconditioned BTN2A1 B30.2 and BTN3A1 B30.2 complex, BTN2A1 B30.2 (20 µM) and BTN3A1 B30.2 (10 µM) were incubated in the buffer at a 2:1 ratio and loaded into the sample cell, and the injection syringe was filled with buffer containing 100 µM HMBPP.
For DMAPP/IPP binding to the preconditioned BTN2A1 B30.2 and BTN3A1 B30.2 complex, BTN2A1 B30.2 (200 µM) and BTN3A1 B30.2 (100 µM) were incubated in buffer at a 2:1 ratio and loaded into the sample cell, and the injection syringe was filled with buffer containing 1 mM DMAPP/IPP.
For other pAgs, their concentrations were adjusted to 500 µM, and BTN2A1 B30.2 and BTN3A1 B30.2 were adjusted to 100 µM and 50 µM at a 2:1 ratio.
A general note: In ITC the heat of successive injections is recorded.

The next test has as its system MIA PaCa-2 cells. The test can be described thus: Cell killing assay: cytotoxicity of Vγ9Vδ2 T cells towards pAg- or zoledronate-treated MIA PaCa-2 cells (luciferase). The note with it: Homo sapiens, MIA PaCa-2, Supplementary Table 4; read-out: EC50 (M) for MIA PaCa-2 cell lysis mediated by HMBPP analogs and Vγ9Vδ2 T cells. It is filed as cell-based, human.

Where “and” joins values, the source holds several entries; their conditions need not be identical. Identical values can stand only once.

The source of these data is publication PMC10533412, “Phosphoantigens glue butyrophilin 3A1 and 2A1 to activate Vγ9Vδ2 T cells” (Nature, 2023).

T1 sequence (O00481 322-513 limits assumed): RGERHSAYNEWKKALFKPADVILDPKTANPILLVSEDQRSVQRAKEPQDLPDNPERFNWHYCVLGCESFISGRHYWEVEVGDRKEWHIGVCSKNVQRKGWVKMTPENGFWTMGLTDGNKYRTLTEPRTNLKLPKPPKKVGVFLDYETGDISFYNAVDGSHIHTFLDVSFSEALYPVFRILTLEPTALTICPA
T1 sequence (Q7KYR7 316-527 limits assumed): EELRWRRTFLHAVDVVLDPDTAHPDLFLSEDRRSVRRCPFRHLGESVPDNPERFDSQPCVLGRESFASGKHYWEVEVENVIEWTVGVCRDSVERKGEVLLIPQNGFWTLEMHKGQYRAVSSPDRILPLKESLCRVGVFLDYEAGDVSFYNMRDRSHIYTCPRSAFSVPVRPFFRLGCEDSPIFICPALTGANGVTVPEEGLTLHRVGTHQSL

For the molecule 2A1 WT, the “Mean response (Fig. 6h, Dunnett test details)” value in test [1] (Row 1 (-6.4)) is 1.143; in test [1] (Row 2 (-5.8)) it was 3.802; in test [1] (Row 3 (-5.2)), 14.85; in test [1] (Row 4 (-4.6)) it was 21.48; in test [1] (Row 5 (-4)), 24.98. Further, the “Response, individual replicates (Fig. 6h source data)” value in test [1] (x = -4 (log concentration; stimulant and units not given)) is 22.8101 and 22.1668 and 28.5464 and 27.6474 and 25.9163 and 22.7794; in test [1] (x = -4.6 (log concentration; stimulant and units not given)), 21.6162 and 22.5956 and 18.2653 and 23.7306 and 21.555 and 21.0967; in test [1] (x = -5.2 (log concentration; stimulant and units not given)) it was 14.9991 and 16.3572 and 11.8762 and 12.0557 and 14.1862 and 19.6027; in test [1] (x = -5.8 (log concentration; stimulant and units not given)), 3.9587 and 2.199 and 2.053 and 2.932 and 3.753 and 7.914; in test [1] (x = -6.4 (log concentration; stimulant and units not given)) it was 1.264 and 0.797 and 0.5929 and 0.7387 and 0.7679 and 2.697.

A word on the Kd: it is the free concentration of one partner at which half of the binding sites on the other are occupied at equilibrium, for simple one-to-one binding. One may read the EC50 as the concentration at which the effect is half-maximal. `CC/C(=C\COP(=O)(O)OP(=O)(O)O)CO` [Compound 4, (E)-4-hydroxy-3-ethyl-but-2-enyl diphosphate]: the Kd in test [2] was determined as 3.26e-07 M. For the same molecule, the EC50 in the test on MIA PaCa-2 cells turned out to be 4.5e-07 M.

With `C=CC/C(=C\COP(=O)(O)OP(=O)(O)O)CO` [Compound 5, (E)-3-(hydroxymethyl)hexa-2,5-dienyl diphosphate], the Kd in test [2] was 2.06e-07 M. For the same molecule, the EC50 in the test on MIA PaCa-2 cells amounted to 1.3e-08 M.

Regarding `C/C(=C\COP(=O)(O)OP(=O)(O)O)C(C)O` (centres unmarked) [Compound 6, (E)-4-hydroxy-3-methylpent-2-en-1-yl diphosphate], the Kd in test [2] is 1.69e-05 M. In addition, the half-maximal effective concentration (EC50) in the test with MIA PaCa-2 cells worked out at 1.8e-06 M.

Consider `C/C(=C\COP(=O)(O)CP(=O)(O)O)CO` [Compound 7, (E)-((hydroxy((4-hydroxy-3-methylbut-2-en-1-yl)oxy)phosphoryl)methyl)phosphonic acid], for which, in test [2], the Kd was determined as 4.62e-05 M. The EC50 with MIA PaCa-2 cells stood at 1.46e-06 M.

For `C/C(=C\COP(=O)(O)C(Cl)(Cl)P(=O)(O)O)CO` [Compound 8, (E)-(dichloro(hydroxy((4-hydroxy-3-methylbut-2-en-1yl)oxy)phosphoryl)methyl diphosphate], the Kd in test [2] is 1.25e-05 M. In the test on MIA PaCa-2 cells, the EC50 was 9.28e-07 M.

On to `C/C(=C\COP(=O)(O)C(Cl)P(=O)(O)O)CO` (centres unmarked) [Compound 9, (E)-(chloro(hydroxy((4-hydroxy-3-methylbut-2-en-1-yl)oxy)phosphoryl)methyl)phosphonic acid], for which, in test [2], the Kd worked out at 4.97e-05 M. Also, the EC50 in the test on MIA PaCa-2 cells came out at 3.5e-05 M.

As to `C/C(=C\COP(=O)(O)C(F)(F)P(=O)(O)O)CO` [Compound 10, (E)-(difluoro(hydroxy((4-hydroxy-3-methylbut-2-en-1-yl)oxy)phosphory)methyl)phosphonic acid], the dissociation constant (Kd) in test [2] stood at 1.15e-05 M. Besides, the EC50 in the test on MIA PaCa-2 cells is 5.33e-06 M.

As for `C/C(=C\COP(=O)(O)C(F)P(=O)(O)O)CO` (centres unmarked) [Compound 11, (E)-(fluoro(hydroxy((4-hydroxy-3-methylbut-2-en-1-yl)oxy)phosphoryl)methyl)phosphonic acid], the equilibrium dissociation constant (Kd) in test [2] worked out at 2.81e-05 M. In addition, in the test on MIA PaCa-2 cells, the EC50 amounted to 8.71e-07 M.
